Here are results for 16 compounds from BindingDB's records for doi:10.1021/ja050122x (Yale University, 2005).

pKi: −log10 of the molar value.

A word on the pKi: it is the negative decadic logarithm of the Ki, by convention in mol/L.

Sequence of Bcl-2-like protein 1 (Q07817 whole entry): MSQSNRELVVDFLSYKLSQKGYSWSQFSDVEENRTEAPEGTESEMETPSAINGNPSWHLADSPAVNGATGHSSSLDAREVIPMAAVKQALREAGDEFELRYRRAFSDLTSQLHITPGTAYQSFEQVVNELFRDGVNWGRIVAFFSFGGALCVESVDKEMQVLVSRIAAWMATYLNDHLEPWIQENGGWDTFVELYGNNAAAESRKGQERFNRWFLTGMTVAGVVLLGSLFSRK

The test has as its target Bcl-2-like protein 1 (Homo sapiens, UniProt Q07817). As to the kind of experiment: Fluorescence Polarization Assay. To be noted: pH 7.4; 25 °C. As to the method:
Fluorescence polarization experiments were conducted on a Photon Technology International instrument using a 0.3 cm path length cuvette. Spectra were measured at 25 deg C using 10.0 nm slit widths. Excitation at 495 nm was used for the fluorescein-containing peptide Fl-Bak and the emission maximum at 535 nm was monitored. Polarization measurements were recorded upon titration of inhibitors at varying concentrations into a solution of Fl-Bak and Bcl-xL. Regression analysis was carried out using SigmaPlot 2001 (Systat Co.) ligand binding macro module. Experimental data were fitted to determine the IC50 values, which can be related to the known affinity of the 16-mer Bak peptide (Kd =120 nM) to acquire the inhibitory constant Ki.
In general terms: Fluorescence polarisation rises when a labelled molecule tumbles more slowly, as on binding a larger partner.
In turn, `CCc1cc(-c2ccc(OCC(=O)O)cc2C(C)C)ccc1-c1cccc(Cc2cccc3ccccc23)c1` showed a pKi of 5.16.
As to `CC(C)Cc1cc(-c2ccc(-c3ccc(CCC(=O)O)cc3CC(C)C)cc2Cc2cccc3ccccc23)ccc1OCC(=O)O` [terphenyl scaffold, 14], the negative logarithm of the Ki (pKi) was 6.94.
With `CC(C)Cc1cc(-c2ccc(-c3ccc(CCC(=O)O)cc3CC(C)C)cc2C(C)C)ccc1OCC(=O)O` [terphenyl scaffold, 15], the pKi is 5.68.
On to `CC(C)Cc1cc(-c2ccc(-c3ccc(CCC(=O)O)cc3CC(C)C)cc2Cc2ccccc2)ccc1OCC(=O)O` [terphenyl scaffold, 16], for which the negative logarithm of the Ki (pKi) was 5.74.
In the case of `CC(C)Cc1cc(-c2ccc(-c3ccc(CCC(=O)O)cc3CC(C)C)cc2Cc2ccc3ccccc3c2)ccc1OCC(=O)O` [terphenyl scaffold, 17], the negative-log Ki (pKi) is 5.60.
Next, `CC(C)Cc1cc(CCC(=O)O)ccc1-c1ccc(-c2ccc(OCC(=O)O)c(Cc3ccccc3)c2)c(Cc2ccccc2)c1` [terphenyl scaffold, 18]: 5.56.
In turn, `CC(C)Cc1cc(CCC(=O)O)ccc1-c1ccc(-c2ccc(OCC(=O)O)c(Cc3cccc4ccccc34)c2)c(CC(C)C)c1` [terphenyl scaffold, 19] had a negative-log Ki (pKi) of 5.57.
`Cc1cc(CCC(=O)O)ccc1-c1cc(C)c(-c2ccc(OCC(=O)O)c(Cc3ccccc3)c2)c(C)c1` [terphenyl scaffold, 20] showed a pKi of 5.63.
The value for `Cc1cc(CCC(=O)O)ccc1-c1cc(C)c(-c2ccc(OCC(=O)O)c(Cc3ccccc3)c2)c(CCC(=O)O)c1` [terphenyl scaffold, 21] was under 4.52; that for `COC(=O)CCc1ccc(-c2ccc(-c3ccc(OCC(=O)OC)cc3)cc2)cc1` [terphenyl scaffold, 22] was under 4.52; that for `CC(C)Cc1cc(-c2ccc(-c3ccc(CCCN)cc3CC(C)C)cc2C(C)C)ccc1OCCN` [terphenyl scaffold, 24] was 4.87.
For the compound `Cc1cccc(-c2ccc(-c3ccc(OCC(=O)O)cc3C)cc2C)c1` [terphenyl scaffold, 25], the pKi is 4.74.
Compound `Cc1cc(OCC(=O)O)ccc1-c1ccc(-c2cccc(C(C)C)c2)c(C)c1` [terphenyl scaffold, 26] gave a pKi of 4.98.
As for `CC(C)Cc1cc(OCC(=O)O)ccc1-c1ccc(-c2cccc(C(C)C)c2)c(CC(C)C)c1` [terphenyl scaffold, 27], the pKi was 5.32.
On to `CCc1cc(-c2ccc(OCC(=O)O)cc2C(C)C)ccc1-c1cccc(Cc2ccccc2)c1` [terphenyl scaffold, 28], for which the pKi was 5.49.
In turn, `O=C(O)COc1ccc(-c2ccc(-c3ccccc3)cc2)cc1` [terphenyl scaffold, 30] gave a pKi of under 4.52.
